Laboratory results reported in patent US20240251792A1, “WEED CONTROL METHOD” (SYNGENTA CROP PROTECTION AG, priority 2021, published 2024).

Legend:
Type in all cases: in vivo
Conditions in all cases: 1000 g/ha, after 12 days
DIGSA [1] = assay: Biological efficacy, pre-emergence glasshouse test (Table 2)
Method: (§1) Seeds of a variety of test species were shown in unsterilised compost in small pots. After cultivation for one day (pre-emergence) or seven days (post-emergence) in controlled conditions in the glasshouse (at 24/16° C., day/night; 14 hours light; 65% humidity) the plants were sprayed with 1 mg of the active ingredient, formulated in 466 μl of a acetone/water/Tween 20 (49.75:49.75:0.5) solution, which is equivalent to 1000 g/ha. Once the foliage was dry, the pots were kept in the glasshouse (at 24/16° C., day/night; 14 hours light; 65% humidity), and were watered twice daily. After 12 days the test was evaluated and scored (100=total damage to plant, 0=no damage to plant).

STEME [2] = assay: as above
Method: as §1

AMARE [3] = assay: as above
Method: as §1

LOLPE [4] = assay: as above
Method: as §1

DIGSA [5] = assay: Biological efficacy, post-emergence glasshouse test (Table 2)
Method: as §1

STEME [6] = assay: as above
Method: as §1

AMARE [7] = assay: as above
Method: as §1

LOLPE [8] = assay: as above
Method: as §1

SMILES	score (100=total damage to plant, 0=no damage to plant) (DIGSA [1])	score (100=total damage to plant, 0=no damage to plant) (STEME [2])	score (100=total damage to plant, 0=no damage to plant) (AMARE [3])	score (100=total damage to plant, 0=no damage to plant) (LOLPE [4])	score (100=total damage to plant, 0=no damage to plant) (DIGSA [5])	score (100=total damage to plant, 0=no damage to plant) (STEME [6])	score (100=total damage to plant, 0=no damage to plant) (AMARE [7])	score (100=total damage to plant, 0=no damage to plant) (LOLPE [8])
O=C(O)C(F)(F)c1ccc(OC(F)(F)F)cc1 [Compound 1-3]	0	30	50	30	0	30	70	0
COc1cc(C(F)(F)C(=O)O)ccc1C [Compound 1-7]	0	30	0	0	0	70	40	0
Nc1cccc(C(F)(F)C(=O)O)c1 [Compound 1-8, 2-(3-Aminophenyl)-2,2-difluoro-acetic acid]	0	0	0	0	0	10	10	0
O=C(O)C(F)(F)c1ccc(OC(F)(F)F)c(Br)c1 [Compound 1-20]	0	0	30	0	30	0	70	0
O=C(O)C(F)(F)c1ccc(OC(F)F)cc1F [Compound 1-32]	0	0	0	0	0	40	30	0
N#Cc1cccc(C(F)(F)C(=O)O)c1 [Compound 1-186]	0	10	10	0	0	30	60	0
CCc1ccccc1C(F)(F)C(=O)O [Compound 1-263]	0	0	40	0	0	50	50	0
CCc1c(Cl)cccc1C(F)(F)C(=O)O [Compound 1-275, 2-(3-Chloro-2-ethyl-phenyl)-2,2-difluoro-acetic acid]	80	100	100	60	30	80	90	0
C#Cc1c(Cl)cccc1C(F)(F)C(=O)O [Compound 1-291, 2-(3-Chloro-2-ethynyl-phenyl)-2,2-difluoro-acetic acid]	90	100	90	80	70	80	100	0
COc1ccc(F)cc1C(F)(F)C(=O)O [Compound 1-304]	0	0	0	0	20	20	70	20
COc1ccc(Cl)cc1C(F)(F)C(=O)O [Compound 1-305]	0	0	0	0	0	0	50	0
CCOc1ccccc1C(F)(F)C(=O)O [Compound 1-328]	0	40	50	0	0	60	80	0
CC(C)Oc1ccccc1C(F)(F)C(=O)O [Compound 1-341]	0	30	30	10	20	60	80	10
